For orientation: IC50 means the midpoint of a concentration-inhibition curve. For orientation: EC50 means the concentration giving half of the maximal effect.

Where “and” joins values, the source holds several entries; their conditions need not be identical. Identical values can stand only once. Entries after “also recorded” stand apart in the source; their conditions may differ. Like-named read-outs stand apart in the source and are kept apart here.

One experiment has as its target T1, GluD1-A650T (Homo sapiens, UniProt Q9ULK0, A650T).
T1 construct: expressed in transfected cells; host or cells: Xenopus laevis oocytes injected with cRNA
T1 sequence (Q9ULK0 21-1009 A650T): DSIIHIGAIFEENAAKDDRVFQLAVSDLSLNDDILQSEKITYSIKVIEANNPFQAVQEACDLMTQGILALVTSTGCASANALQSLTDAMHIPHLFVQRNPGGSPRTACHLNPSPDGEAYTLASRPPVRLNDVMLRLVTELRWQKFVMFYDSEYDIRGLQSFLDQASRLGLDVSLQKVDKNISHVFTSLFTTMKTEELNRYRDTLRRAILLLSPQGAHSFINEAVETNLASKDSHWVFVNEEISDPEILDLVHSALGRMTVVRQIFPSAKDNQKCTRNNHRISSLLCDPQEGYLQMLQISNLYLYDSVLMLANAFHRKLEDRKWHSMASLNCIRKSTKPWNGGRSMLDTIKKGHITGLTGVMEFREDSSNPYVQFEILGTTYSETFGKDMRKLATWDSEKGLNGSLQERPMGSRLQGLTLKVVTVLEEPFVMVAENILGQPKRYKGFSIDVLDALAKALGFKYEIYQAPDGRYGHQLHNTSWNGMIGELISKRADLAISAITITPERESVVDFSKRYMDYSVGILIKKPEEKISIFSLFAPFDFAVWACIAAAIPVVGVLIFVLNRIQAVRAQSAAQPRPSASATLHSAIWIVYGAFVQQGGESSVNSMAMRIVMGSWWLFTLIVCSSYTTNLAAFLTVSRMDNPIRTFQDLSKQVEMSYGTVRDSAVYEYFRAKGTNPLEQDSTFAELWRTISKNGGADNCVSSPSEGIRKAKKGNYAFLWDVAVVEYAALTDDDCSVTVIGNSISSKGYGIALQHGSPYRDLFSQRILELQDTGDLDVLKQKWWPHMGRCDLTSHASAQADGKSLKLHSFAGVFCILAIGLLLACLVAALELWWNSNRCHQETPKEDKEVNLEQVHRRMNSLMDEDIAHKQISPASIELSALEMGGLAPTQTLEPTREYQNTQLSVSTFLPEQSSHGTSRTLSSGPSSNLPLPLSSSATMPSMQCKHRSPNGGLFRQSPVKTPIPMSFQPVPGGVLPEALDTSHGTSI
Kind of experiment: TEVC of constitutive current, Xenopus oocytes expressing GluD1-A650T. In kind it is cell-based. The following applies: for EC50: modulation of constitutive current.

Another experiment concerns the target T2, GluD2-T649A (Rattus norvegicus, UniProt Q63226, T649A).
T2 construct: expressed in transfected cells; host or cells: Xenopus laevis oocytes injected with cRNA
T2 sequence (Q63226 24-1007 T649A): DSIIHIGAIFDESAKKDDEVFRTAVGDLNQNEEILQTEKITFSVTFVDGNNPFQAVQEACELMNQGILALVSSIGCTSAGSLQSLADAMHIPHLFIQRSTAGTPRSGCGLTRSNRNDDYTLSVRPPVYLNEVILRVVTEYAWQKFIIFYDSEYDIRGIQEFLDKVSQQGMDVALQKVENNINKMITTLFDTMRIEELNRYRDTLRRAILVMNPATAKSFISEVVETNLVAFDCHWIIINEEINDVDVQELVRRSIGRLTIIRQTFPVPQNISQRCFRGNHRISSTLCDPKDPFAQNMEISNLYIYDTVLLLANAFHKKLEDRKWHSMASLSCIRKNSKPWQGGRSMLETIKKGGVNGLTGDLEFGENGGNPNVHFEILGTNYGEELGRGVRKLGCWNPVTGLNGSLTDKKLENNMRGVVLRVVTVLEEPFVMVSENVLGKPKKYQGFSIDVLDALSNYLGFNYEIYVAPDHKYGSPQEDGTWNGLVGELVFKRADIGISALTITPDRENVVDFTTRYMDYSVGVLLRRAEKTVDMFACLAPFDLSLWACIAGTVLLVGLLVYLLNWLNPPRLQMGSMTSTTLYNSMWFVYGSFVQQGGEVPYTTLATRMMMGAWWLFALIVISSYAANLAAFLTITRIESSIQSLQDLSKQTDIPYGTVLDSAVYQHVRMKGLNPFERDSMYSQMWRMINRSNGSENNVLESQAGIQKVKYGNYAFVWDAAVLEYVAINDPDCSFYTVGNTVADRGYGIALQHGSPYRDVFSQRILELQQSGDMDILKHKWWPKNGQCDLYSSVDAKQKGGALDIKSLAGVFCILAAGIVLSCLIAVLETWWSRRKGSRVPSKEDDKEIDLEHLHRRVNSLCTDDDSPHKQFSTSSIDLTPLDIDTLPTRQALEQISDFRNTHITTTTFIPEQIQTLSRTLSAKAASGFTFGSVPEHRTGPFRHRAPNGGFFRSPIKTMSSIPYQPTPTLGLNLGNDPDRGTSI
The experiment can be described thus: TEVC of constitutive current, Xenopus oocytes expressing GluD2-T649A. The following applies: for IC50: read-out: Pentamidine IC50. In kind it is cell-based.

[1] abbreviates: 10 mM D-serine, positive = increase, negative = decrease of activity.
Where [2] appears, read: percent of constitutive leak current (NMDG+/Na+ difference current).
Where [3] appears, read: 100 μM pentamidine, positive = increase, negative = decrease of activity.
Setting [4] is: normalized to NMDG+ − Na+ difference current.

As for `CC12CC3CC(C)(C1)CC(N)(C3)C2` [Memantine, memantine], the IC50 on GluD1-A650T (inhibition of constitutive current, read-out: Memantine IC50) was more than 300 µM.

As for `N[C@H](CO)C(=O)O` [D-serine], on GluD1-A650T, the “Effect on constitutive current, in words” value was “modestly potentiated; also recorded: slightly potentiated”. Also, the “D-Serine effect (Baseline −10 mM D-Serine)” value on GluD1-A650T (setting [1]) was 810 ± 130 (12) nA; at GluD2-T649A (setting [1]) it was −35 ± 5.6 (14) nA. Further, the “D-serine % Max (NMDG+ − Na+) Mean ± SEM” value at GluD1-A650T (setting [2]) is recorded as 120 ± 1.8 (11) %; at GluD2-T649A (setting [2]), 49 ± 2.5 (7) %. In addition, the EC50 at GluD1-A650T (read-out: D-serine EC50 [95% CI], potentiated by D-serine (not inhibited)) was 130 µM. For the same compound, the “D-serine Hill slope” value at GluD2-T649A (1 mM Ca2+, Fig. S7B) is 2.0. For the same compound, the “D-serine Maximum” value on GluD2-T649A (1 mM Ca2+, Fig. S7B) was found to be 54%.

As for `N=C(N)c1ccc(OCCCCCOc2ccc(C(=N)N)cc2)cc1` [Pentamidine, pentamidine], the “Pentamidine effect (Baseline −100 μM Pentamidine)” value on GluD1-A650T (setting [3]) is listed as −1090 ± 200 (12) nA; at GluD2-T649A (setting [3]) it was −18 ± 4.8 (14) nA. Also, the half-maximal inhibitory concentration (IC50) was determined as 20 µM on GluD1-A650T (read-out: Pentamidine IC50); 0.037 µM on GluD2-T649A (inhibition of constitutive channels); 0.036 µM on GluD2-T649A (inhibition of constitutive current, 1 mM Ca2+). The “Fold increase in pentamidine potency on GluD2-T649A compared to GluD2-A654T” value at GluD2-T649A (IC50 comparison) is ~ 200 fold and > 200 fold.

For the compound `[Ca+2]` [Ca^2+], at GluD1-A650T, the “Effect on constitutive current, in words” value is recorded as “modestly inhibited”. Also, the EC50 at GluD1-A650T (inhibited by Ca2+ (not potentiated), read-out: Ca2+ EC50 [95% CI]) is 290 µM; at GluD2-T649A (potentiation of constitutive current, read-out: Ca2+ EC50 [95% CI]), 290 µM; at GluD2-T649A (read-out: Ca2+ potentiation EC50), 100 to 400 µM. Moreover, the “Ca2+ % Max (NMDG+ − Na+) Mean ± SEM” value on GluD1-A650T (setting [4]) is reported as 65 ± 3 (10) %; at GluD2-T649A (setting [4]) it was 345 ± 55 (10) %. The “Ca2+ EC50 of the relation Ca2+ concentration vs D-serine IC50” value at GluD2-T649A (Hill fit, Fig. S7A) turned out to be 630 µM. In addition, the “Hill slope of the relation Ca2+ concentration vs D-serine IC50” value at GluD2-T649A (Hill fit, Fig. S7A) is 1.4. At GluD2-T649A (ratio), the “Ca2+ EC50 A654T/EC50 variant” value is 0.52.

(Values after article PMC10840383, “Clinical features, functional consequences, and rescue pharmacology of missense GRID1 and GRID2 human variants” (Human Molecular Genetics, 2023).)
